- melting point: 130 °C
SMILES: CCC(=O)Nc1ccc(-c2noc(C(F)(F)F)n2)cn1 [Ex-1, N-[5-[5-(trifluoromethyl)-1,2,4-oxadiazol-3-yl]-2-pyridyl]propanamide]

Reference: US20180354920A1, “SUBSTITUTED OXADIAZOLES FOR COMBATING PHYTOPATHOGENIC FUNGI” (BASF SE, priority 2015, published 2018)
